Measured values reported in ChEMBL document CHEMBL3400097, “Effect of arginine methylation on the RNA recognition and cellular uptake of Tat-derived peptides” (Bioorg Med Chem, 2015).

Tested on: Jurkat
Test: Cellular uptake in human Jurkat cells at 7 to 120 uM after 15 mins by 6-carboxyfluorescein staining-based flow cytometry
Type: ADME, cell-based
Conditions: 0.25 h; call rule not given here

SMILES | Drug uptake
CNC(=N)NCCC[C@H](NC(=O)[C@H](CCC(N)=O)NC(=O)[C@H](CCCNC(=N)N)NC(=O)[C@H](CCCNC(=N)N)NC(=O)[C@H](CCCCN)NC(=O)[C@H](CCCCN)NC(=O)[C@H](CCCNC(=N)N)NC(=O)CNC(=O)[C@H](Cc1ccc(O)cc1)NC(=O)CCNC(=O)c1ccc2c(c1)C1(OC2=O)c2ccc(O)cc2Oc2cc(O)ccc21)C(=O)N[C@@H](CCCNC(=N)N)C(=O)N[C@@H](CCCNC(=N)N)C(N)=O | Active
CNC(=N)NCCC[C@H](NC(=O)[C@H](CCCNC(=N)N)NC(=O)[C@H](CCC(N)=O)NC(=O)[C@H](CCCNC(=N)N)NC(=O)[C@H](CCCNC(=N)N)NC(=O)[C@H](CCCCN)NC(=O)[C@H](CCCCN)NC(=O)[C@H](CCCNC(=N)N)NC(=O)CNC(=O)[C@H](Cc1ccc(O)cc1)NC(=O)CCNC(=O)c1ccc2c(c1)C1(OC2=O)c2ccc(O)cc2Oc2cc(O)ccc21)C(=O)N[C@@H](CCCNC(=N)N)C(N)=O | Active
CNC(=N)NCCC[C@H](NC(=O)[C@H](CCCNC(=N)N)NC(=O)[C@H](CCCNC(=N)N)NC(=O)[C@H](CCC(N)=O)NC(=O)[C@H](CCCNC(=N)N)NC(=O)[C@H](CCCNC(=N)N)NC(=O)[C@H](CCCCN)NC(=O)[C@H](CCCCN)NC(=O)[C@H](CCCNC(=N)N)NC(=O)CNC(=O)[C@H](Cc1ccc(O)cc1)NC(=O)CCNC(=O)c1ccc2c(c1)C1(OC2=O)c2ccc(O)cc2Oc2cc(O)ccc21)C(N)=O | Active
CN(C)C(=N)NCCC[C@H](NC(=O)CNC(=O)[C@H](Cc1ccc(O)cc1)NC(=O)CCNC(=O)c1ccc2c(c1)C1(OC2=O)c2ccc(O)cc2Oc2cc(O)ccc21)C(=O)N[C@@H](CCCCN)C(=O)N[C@@H](CCCCN)C(=O)N[C@@H](CCCNC(=N)N)C(=O)N[C@@H](CCCNC(=N)N)C(=O)N[C@@H](CCC(N)=O)C(=O)N[C@@H](CCCNC(=N)N)C(=O)N[C@@H](CCCNC(=N)N)C(=O)N[C@@H](CCCNC(=N)N)C(N)=O | Active
CN(C)C(=N)NCCC[C@H](NC(=O)[C@H](CCCCN)NC(=O)[C@H](CCCCN)NC(=O)[C@H](CCCNC(=N)N)NC(=O)CNC(=O)[C@H](Cc1ccc(O)cc1)NC(=O)CCNC(=O)c1ccc2c(c1)C1(OC2=O)c2ccc(O)cc2Oc2cc(O)ccc21)C(=O)N[C@@H](CCCNC(=N)N)C(=O)N[C@@H](CCC(N)=O)C(=O)N[C@@H](CCCNC(=N)N)C(=O)N[C@@H](CCCNC(=N)N)C(=O)N[C@@H](CCCNC(=N)N)C(N)=O | Active
CN(C)C(=N)NCCC[C@H](NC(=O)[C@H](CCCNC(=N)N)NC(=O)[C@H](CCCCN)NC(=O)[C@H](CCCCN)NC(=O)[C@H](CCCNC(=N)N)NC(=O)CNC(=O)[C@H](Cc1ccc(O)cc1)NC(=O)CCNC(=O)c1ccc2c(c1)C1(OC2=O)c2ccc(O)cc2Oc2cc(O)ccc21)C(=O)N[C@@H](CCC(N)=O)C(=O)N[C@@H](CCCNC(=N)N)C(=O)N[C@@H](CCCNC(=N)N)C(=O)N[C@@H](CCCNC(=N)N)C(N)=O | Active
CN(C)C(=N)NCCC[C@H](NC(=O)[C@H](CCC(N)=O)NC(=O)[C@H](CCCNC(=N)N)NC(=O)[C@H](CCCNC(=N)N)NC(=O)[C@H](CCCCN)NC(=O)[C@H](CCCCN)NC(=O)[C@H](CCCNC(=N)N)NC(=O)CNC(=O)[C@H](Cc1ccc(O)cc1)NC(=O)CCNC(=O)c1ccc2c(c1)C1(OC2=O)c2ccc(O)cc2Oc2cc(O)ccc21)C(=O)N[C@@H](CCCNC(=N)N)C(=O)N[C@@H](CCCNC(=N)N)C(N)=O | Active
CN(C)C(=N)NCCC[C@H](NC(=O)[C@H](CCCNC(=N)N)NC(=O)[C@H](CCC(N)=O)NC(=O)[C@H](CCCNC(=N)N)NC(=O)[C@H](CCCNC(=N)N)NC(=O)[C@H](CCCCN)NC(=O)[C@H](CCCCN)NC(=O)[C@H](CCCNC(=N)N)NC(=O)CNC(=O)[C@H](Cc1ccc(O)cc1)NC(=O)CCNC(=O)c1ccc2c(c1)C1(OC2=O)c2ccc(O)cc2Oc2cc(O)ccc21)C(=O)N[C@@H](CCCNC(=N)N)C(N)=O | Active
CN(C)C(=N)NCCC[C@H](NC(=O)[C@H](CCCNC(=N)N)NC(=O)[C@H](CCCNC(=N)N)NC(=O)[C@H](CCC(N)=O)NC(=O)[C@H](CCCNC(=N)N)NC(=O)[C@H](CCCNC(=N)N)NC(=O)[C@H](CCCCN)NC(=O)[C@H](CCCCN)NC(=O)[C@H](CCCNC(=N)N)NC(=O)CNC(=O)[C@H](Cc1ccc(O)cc1)NC(=O)CCNC(=O)c1ccc2c(c1)C1(OC2=O)c2ccc(O)cc2Oc2cc(O)ccc21)C(N)=O | Active
C/N=C(\NC)NCCC[C@H](NC(=O)CNC(=O)[C@H](Cc1ccc(O)cc1)NC(=O)CCNC(=O)c1ccc2c(c1)C1(OC2=O)c2ccc(O)cc2Oc2cc(O)ccc21)C(=O)N[C@@H](CCCCN)C(=O)N[C@@H](CCCCN)C(=O)N[C@@H](CCCNC(=N)N)C(=O)N[C@@H](CCCNC(=N)N)C(=O)N[C@@H](CCC(N)=O)C(=O)N[C@@H](CCCNC(=N)N)C(=O)N[C@@H](CCCNC(=N)N)C(=O)N[C@@H](CCCNC(=N)N)C(N)=O | Active
C/N=C(\NC)NCCC[C@H](NC(=O)[C@H](CCCCN)NC(=O)[C@H](CCCCN)NC(=O)[C@H](CCCNC(=N)N)NC(=O)CNC(=O)[C@H](Cc1ccc(O)cc1)NC(=O)CCNC(=O)c1ccc2c(c1)C1(OC2=O)c2ccc(O)cc2Oc2cc(O)ccc21)C(=O)N[C@@H](CCCNC(=N)N)C(=O)N[C@@H](CCC(N)=O)C(=O)N[C@@H](CCCNC(=N)N)C(=O)N[C@@H](CCCNC(=N)N)C(=O)N[C@@H](CCCNC(=N)N)C(N)=O | Active
C/N=C(\NC)NCCC[C@H](NC(=O)[C@H](CCCNC(=N)N)NC(=O)[C@H](CCCCN)NC(=O)[C@H](CCCCN)NC(=O)[C@H](CCCNC(=N)N)NC(=O)CNC(=O)[C@H](Cc1ccc(O)cc1)NC(=O)CCNC(=O)c1ccc2c(c1)C1(OC2=O)c2ccc(O)cc2Oc2cc(O)ccc21)C(=O)N[C@@H](CCC(N)=O)C(=O)N[C@@H](CCCNC(=N)N)C(=O)N[C@@H](CCCNC(=N)N)C(=O)N[C@@H](CCCNC(=N)N)C(N)=O | Active
C/N=C(\NC)NCCC[C@H](NC(=O)[C@H](CCC(N)=O)NC(=O)[C@H](CCCNC(=N)N)NC(=O)[C@H](CCCNC(=N)N)NC(=O)[C@H](CCCCN)NC(=O)[C@H](CCCCN)NC(=O)[C@H](CCCNC(=N)N)NC(=O)CNC(=O)[C@H](Cc1ccc(O)cc1)NC(=O)CCNC(=O)c1ccc2c(c1)C1(OC2=O)c2ccc(O)cc2Oc2cc(O)ccc21)C(=O)N[C@@H](CCCNC(=N)N)C(=O)N[C@@H](CCCNC(=N)N)C(N)=O | Active
C/N=C(\NC)NCCC[C@H](NC(=O)[C@H](CCCNC(=N)N)NC(=O)[C@H](CCC(N)=O)NC(=O)[C@H](CCCNC(=N)N)NC(=O)[C@H](CCCNC(=N)N)NC(=O)[C@H](CCCCN)NC(=O)[C@H](CCCCN)NC(=O)[C@H](CCCNC(=N)N)NC(=O)CNC(=O)[C@H](Cc1ccc(O)cc1)NC(=O)CCNC(=O)c1ccc2c(c1)C1(OC2=O)c2ccc(O)cc2Oc2cc(O)ccc21)C(=O)N[C@@H](CCCNC(=N)N)C(N)=O | Active
C/N=C(\NC)NCCC[C@H](NC(=O)[C@H](CCCNC(=N)N)NC(=O)[C@H](CCCNC(=N)N)NC(=O)[C@H](CCC(N)=O)NC(=O)[C@H](CCCNC(=N)N)NC(=O)[C@H](CCCNC(=N)N)NC(=O)[C@H](CCCCN)NC(=O)[C@H](CCCCN)NC(=O)[C@H](CCCNC(=N)N)NC(=O)CNC(=O)[C@H](Cc1ccc(O)cc1)NC(=O)CCNC(=O)c1ccc2c(c1)C1(OC2=O)c2ccc(O)cc2Oc2cc(O)ccc21)C(N)=O | Active
